The values that follow come from ChEMBL document CHEMBL2424579, “Quinazolin-4-one derivatives as selective histone deacetylase-6 inhibitors for the treatment of Alzheimer's disease” (J Med Chem, 2013).

Activity calls are given as the source filed them. The rule behind the calls is not given here. A value given as a limit tells only on which side of the number the result lay.

Series [1] can be described thus: Cytotoxicity against human SH-SY5Y cells at 25 uM. Type of series: cell-based.
Series [2] deals with SH-SY5Y. The experiment in a line: Induction of neurite outgrowth in human SH-SY5Y cells after 5 days. Type of series: functional, cell-based. Conditions: 120 h.
The subject of series [3] is PC-12. The experiment in a line: Induction of neurite outgrowth in rat PC12 cells after 5 days. Conditions: PC-12, 120 h. It counts as functional, cell-based.
Series [4] relates to PC-12. The experiment in a line: Induction of neurite outgrowth in rat PC12 cells at 10 uM after 5 days. It counts as functional, cell-based.
In a further series the target is Histone deacetylase 1 (Homo sapiens, UniProt Q13547). The experiment in a line: Inhibition of human recombinant HDAC1 expressed in baculovirus/sf9 cells using RHKKAc as substrate.
Chain of Histone deacetylase 1 (Q13547 whole entry): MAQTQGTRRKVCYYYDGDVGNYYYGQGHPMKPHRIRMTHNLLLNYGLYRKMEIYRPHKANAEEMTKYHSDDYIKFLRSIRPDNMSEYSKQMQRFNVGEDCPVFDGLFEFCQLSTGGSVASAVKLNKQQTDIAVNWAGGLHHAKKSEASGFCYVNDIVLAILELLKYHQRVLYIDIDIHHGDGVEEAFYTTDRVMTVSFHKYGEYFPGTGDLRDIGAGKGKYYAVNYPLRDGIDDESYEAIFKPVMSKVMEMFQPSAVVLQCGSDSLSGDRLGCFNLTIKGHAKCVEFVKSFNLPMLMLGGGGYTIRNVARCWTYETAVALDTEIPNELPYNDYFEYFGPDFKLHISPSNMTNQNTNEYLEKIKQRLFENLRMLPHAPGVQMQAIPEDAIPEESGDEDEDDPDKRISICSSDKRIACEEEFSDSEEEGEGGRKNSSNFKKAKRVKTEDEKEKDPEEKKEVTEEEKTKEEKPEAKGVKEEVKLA
The next series relates to Vero. In words: Cytotoxicity against african green monkey Vero cells at 25 uM. Type of series: cell-based. Conditions: chlorocebus sabaeus.
For series [5], the system named is SH-SY5Y. The experiment in a line: Increase of synaptic activity in human SH-SY5Y cells after 5 days by fluorescence assay. Type of series: functional, cell-based. Conditions: 120 h.
Series [6] has as its system PC-12. The experiment in a line: Cytotoxicity against rat PC12 cells at 25 uM. It counts as cell-based. Conditions: pc-12, 25 µM.
The target of series [7] is T1, Protein deacetylase HDAC6 (Homo sapiens, UniProt Q9UBN7).
T1 sequence (Q9UBN7 whole entry): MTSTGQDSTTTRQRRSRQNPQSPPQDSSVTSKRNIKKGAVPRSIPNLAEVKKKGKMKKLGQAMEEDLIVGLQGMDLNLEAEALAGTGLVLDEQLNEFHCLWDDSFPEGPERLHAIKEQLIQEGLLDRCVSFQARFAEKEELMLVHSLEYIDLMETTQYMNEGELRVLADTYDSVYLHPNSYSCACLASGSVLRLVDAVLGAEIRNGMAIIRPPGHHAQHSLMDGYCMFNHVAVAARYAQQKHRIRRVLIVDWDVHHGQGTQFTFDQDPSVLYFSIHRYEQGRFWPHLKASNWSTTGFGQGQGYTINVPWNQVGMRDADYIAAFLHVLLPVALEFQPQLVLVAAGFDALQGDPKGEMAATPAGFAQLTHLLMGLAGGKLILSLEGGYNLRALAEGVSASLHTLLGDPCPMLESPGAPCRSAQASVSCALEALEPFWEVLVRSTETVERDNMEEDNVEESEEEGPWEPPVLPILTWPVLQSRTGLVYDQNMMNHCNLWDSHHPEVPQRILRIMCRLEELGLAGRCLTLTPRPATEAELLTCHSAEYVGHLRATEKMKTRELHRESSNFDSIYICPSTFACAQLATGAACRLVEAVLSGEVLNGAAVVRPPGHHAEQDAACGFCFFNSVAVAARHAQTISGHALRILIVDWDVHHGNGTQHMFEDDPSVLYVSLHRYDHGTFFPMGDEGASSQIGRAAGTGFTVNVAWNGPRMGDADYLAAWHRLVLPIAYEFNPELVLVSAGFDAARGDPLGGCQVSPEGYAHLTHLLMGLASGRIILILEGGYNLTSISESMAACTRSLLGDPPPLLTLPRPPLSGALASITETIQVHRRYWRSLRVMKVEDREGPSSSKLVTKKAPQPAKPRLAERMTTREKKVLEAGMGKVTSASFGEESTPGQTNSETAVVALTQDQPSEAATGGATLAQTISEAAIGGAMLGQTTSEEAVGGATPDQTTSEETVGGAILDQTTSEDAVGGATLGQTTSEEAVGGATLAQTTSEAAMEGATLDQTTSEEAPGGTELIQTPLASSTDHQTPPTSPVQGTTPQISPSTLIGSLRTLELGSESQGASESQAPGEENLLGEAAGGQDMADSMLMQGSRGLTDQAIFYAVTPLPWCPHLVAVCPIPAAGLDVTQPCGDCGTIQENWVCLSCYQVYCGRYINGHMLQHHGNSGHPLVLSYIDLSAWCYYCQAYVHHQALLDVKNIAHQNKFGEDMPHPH
The experiment in a line: Inhibition of human recombinant HDAC6 expressed in baculovirus/sf9 cells using RHKKAc as substrate.

Series [8] has as its system SH-SY5Y. In words: Induction of neurite outgrowth in human SH-SY5Y cells at 10 uM after 5 days. Type of series: functional, cell-based.
In series [9] the test system is PC-12. The experiment in a line: Increase of synaptic activity in rat PC12 cells after 5 days by fluorescence assay. It counts as functional, cell-based. Conditions: PC-12, 120 h.
The target in a further series is T2, Histone deacetylase 11 (Homo sapiens, UniProt Q96DB2).
T2 sequence (Q96DB2 whole entry): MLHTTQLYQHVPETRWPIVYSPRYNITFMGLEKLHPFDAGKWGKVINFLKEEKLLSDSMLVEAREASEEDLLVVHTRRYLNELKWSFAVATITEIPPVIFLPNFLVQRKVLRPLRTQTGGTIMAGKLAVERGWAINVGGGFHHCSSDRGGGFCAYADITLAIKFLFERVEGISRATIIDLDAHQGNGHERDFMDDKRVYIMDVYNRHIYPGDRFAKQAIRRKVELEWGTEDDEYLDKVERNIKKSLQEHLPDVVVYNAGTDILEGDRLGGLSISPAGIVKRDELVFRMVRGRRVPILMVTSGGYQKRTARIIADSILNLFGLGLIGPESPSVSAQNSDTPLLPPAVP
The experiment in a line: Inhibition of human recombinant HDAC11 expressed in baculovirus/sf9 cells using RHKKAc as substrate.

Series [10] concerns the target Amyloid-beta precursor protein (Homo sapiens, UniProt P05067). In words: Inhibition of amyloid beta aggregation (unknown origin) after 4 hrs by thioflavin S assay in absence of Zn2+.
The target of another series is Histone deacetylase 2 (Homo sapiens, UniProt Q92769). In words: Inhibition of human recombinant HDAC2 expressed in baculovirus/sf9 cells using RHKKAc as substrate.
Chain of Histone deacetylase 2 (Q92769 whole entry): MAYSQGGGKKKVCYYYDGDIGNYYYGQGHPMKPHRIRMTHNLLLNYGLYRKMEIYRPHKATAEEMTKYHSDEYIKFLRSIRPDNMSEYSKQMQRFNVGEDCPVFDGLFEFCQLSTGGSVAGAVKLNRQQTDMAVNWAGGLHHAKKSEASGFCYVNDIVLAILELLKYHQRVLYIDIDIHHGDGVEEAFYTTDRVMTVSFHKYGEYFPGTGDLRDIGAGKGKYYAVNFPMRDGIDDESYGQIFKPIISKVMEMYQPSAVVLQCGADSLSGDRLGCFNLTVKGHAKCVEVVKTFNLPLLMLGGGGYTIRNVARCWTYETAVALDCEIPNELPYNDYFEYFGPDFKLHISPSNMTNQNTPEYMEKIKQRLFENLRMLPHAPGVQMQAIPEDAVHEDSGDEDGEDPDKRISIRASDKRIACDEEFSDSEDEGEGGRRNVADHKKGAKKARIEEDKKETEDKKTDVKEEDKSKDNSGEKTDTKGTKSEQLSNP
The target of a further series is T3, Histone deacetylase 8 (Homo sapiens, UniProt Q9BY41).
T3 sequence (Q9BY41 whole entry): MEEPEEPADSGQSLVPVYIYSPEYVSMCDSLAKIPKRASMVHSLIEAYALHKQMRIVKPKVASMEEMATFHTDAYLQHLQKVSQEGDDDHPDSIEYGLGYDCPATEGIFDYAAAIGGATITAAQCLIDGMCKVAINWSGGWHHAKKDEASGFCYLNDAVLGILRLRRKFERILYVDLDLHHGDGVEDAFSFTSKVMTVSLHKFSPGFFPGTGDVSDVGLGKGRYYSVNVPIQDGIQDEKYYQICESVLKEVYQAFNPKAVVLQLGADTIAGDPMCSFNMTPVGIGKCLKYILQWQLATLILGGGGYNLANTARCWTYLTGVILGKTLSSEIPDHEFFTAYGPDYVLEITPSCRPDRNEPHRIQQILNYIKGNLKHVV
In words: Inhibition of human recombinant HDAC8 expressed in baculovirus/sf9 cells using RHKAcKAc as substrate.

Chain of Amyloid-beta precursor protein (P05067 whole entry): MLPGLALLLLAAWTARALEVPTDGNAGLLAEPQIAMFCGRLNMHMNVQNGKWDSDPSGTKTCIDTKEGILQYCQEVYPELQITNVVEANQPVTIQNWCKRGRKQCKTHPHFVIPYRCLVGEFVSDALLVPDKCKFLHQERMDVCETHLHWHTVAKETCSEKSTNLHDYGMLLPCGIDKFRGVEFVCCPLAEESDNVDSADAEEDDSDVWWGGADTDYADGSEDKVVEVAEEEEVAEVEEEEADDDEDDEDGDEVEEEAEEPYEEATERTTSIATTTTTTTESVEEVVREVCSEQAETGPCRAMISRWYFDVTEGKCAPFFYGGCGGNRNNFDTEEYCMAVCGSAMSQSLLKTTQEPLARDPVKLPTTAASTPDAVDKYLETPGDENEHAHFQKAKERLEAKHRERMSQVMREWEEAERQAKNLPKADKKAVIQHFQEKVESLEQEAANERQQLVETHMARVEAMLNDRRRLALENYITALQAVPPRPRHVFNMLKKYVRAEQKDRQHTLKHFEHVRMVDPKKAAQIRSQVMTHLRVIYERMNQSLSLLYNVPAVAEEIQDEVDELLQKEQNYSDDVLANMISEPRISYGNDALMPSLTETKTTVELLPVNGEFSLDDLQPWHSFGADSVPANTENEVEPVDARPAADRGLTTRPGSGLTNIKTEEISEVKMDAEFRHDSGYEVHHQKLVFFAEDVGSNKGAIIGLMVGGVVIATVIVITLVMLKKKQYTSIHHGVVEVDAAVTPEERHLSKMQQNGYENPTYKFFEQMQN

As a reminder, the EC50 is the concentration that produces a half-maximal response. The term IC50 denotes the concentration that inhibits the measured activity by half. In the case of `CC(C)c1nc2cc(/C=C/C(=O)NO)ccc2c(=O)n1CCc1ccccc1`, the Activity result (in series [1]; in the series on Vero; with PC-12 [6]) was “Non-toxic” throughout. The EC50 in the series on SH-SY5Y [2] stood at 15 µM; in the series with PC-12 [3] it was 11.5 µM; in the series with SH-SY5Y [5] it was 6.7 µM; in the series on PC-12 [9], 5.3 µM. The result in the series on PC-12 [4] and with SH-SY5Y [8] was Active. For the same molecule, the half-inhibitory concentration (IC50) on Histone deacetylase 1 was found to be 0.389 µM; in series [7], 0.013 µM.

On to `O=C(/C=C/c1ccc2c(=O)n(CCc3ccccc3)c(C3CC3)nc2c1)NO`, for which the Activity entry (in series [1]; with Vero; in the series with PC-12 [6]) was “Non-toxic” in each case. Moreover, the EC50 was > 25 µM in the series on SH-SY5Y [2], 10.5 µM in the series with PC-12 [3] and > 25 µM in the series on SH-SY5Y [5]. Also, the outcome in the series with PC-12 [4] and in the series with SH-SY5Y [8] was Active. For the same molecule, the results for the concentration for half-maximal inhibition (IC50) (on Histone deacetylase 1; in [7]) were 0.433 µM and 0.041 µM, respectively.

With `Cc1nc2cc(/C=C/C(=O)NO)ccc2c(=O)n1Cc1ccccc1`, the Activity entry (in [1]; in the series with Vero; in the series on PC-12 [6]) was “Non-toxic” each time. Besides, the IC50 on Histone deacetylase 11 was 2.44 µM; in series [10], > 50 µM; on Histone deacetylase 1 it was 1.45 µM; on Histone deacetylase 2 it was 4 µM; on Histone deacetylase 8 it was 1.27 µM; in series [7], 0.024 µM. In addition, the EC50 is > 25 µM in the series with SH-SY5Y [2], 20.9 µM in the series on PC-12 [3], 8.2 µM in the series on SH-SY5Y [5] and 8.2 µM in the series with PC-12 [9]. Besides, the outcome in the series with PC-12 [4] and with SH-SY5Y [8] was Active.

As for `CCc1nc2cc(/C=C/C(=O)NO)ccc2c(=O)n1CCc1ccc(F)cc1`, the Activity entry (in series [1]; in the series on Vero; in the series on PC-12 [6]) was “Non-toxic” throughout. Besides, the IC50 at Histone deacetylase 11 came to 4.25 µM; on Histone deacetylase 1 it was 2.11 µM; on Histone deacetylase 2, 6.88 µM; on Histone deacetylase 8 it was 0.891 µM; in series [7], 0.043 µM. Moreover, the EC50 was > 25 µM with SH-SY5Y [2], 18.4 µM in the series on PC-12 [3], 22.2 µM in the series with SH-SY5Y [5] and 13.9 µM with PC-12 [9]. Moreover, the result with PC-12 [4] and in the series with SH-SY5Y [8] was Active.

For the molecule `CCc1nc2cc(/C=C/C(=O)NO)ccc2c(=O)n1CCc1ccc(OC)cc1`, the Activity result (in series [1]; in the series on Vero; with PC-12 [6]) was “Non-toxic” throughout. For the same molecule, the concentration for half-maximal inhibition (IC50) amounted to 3.91 µM on Histone deacetylase 11; 1.81 µM on Histone deacetylase 1; 4.78 µM on Histone deacetylase 2; 0.594 µM on Histone deacetylase 8; 0.041 µM in [7]. For the same molecule, the EC50 was > 25 µM with SH-SY5Y [2], 7.2 µM with PC-12 [3], 20.6 µM in the series with SH-SY5Y [5] and 20.6 µM with PC-12 [9].

As to `CCc1nc2ccc(Cc3ccc(C(=O)NO)cc3)cc2c(=O)n1CCc1ccccc1`, the Activity entry (in series [1]; with Vero; in the series on PC-12 [6]) was “Non-toxic” throughout. Besides, the 50% inhibitory concentration (IC50) at Histone deacetylase 11 came to 0.656 µM; at Histone deacetylase 1, 1.05 µM; on Histone deacetylase 2 it was 3.61 µM; at Histone deacetylase 8, 0.099 µM; in series [7], 0.011 µM. Besides, the EC50 in the series with SH-SY5Y [2] stood at 18.4 µM; in the series on PC-12 [3], 9.4 µM; in the series with SH-SY5Y [5], 4.1 µM; with PC-12 [9] it was 2.9 µM. In addition, the result in the series with PC-12 [4] and with SH-SY5Y [8] was Active.
